Patent publication US6495606B1, “Nitric oxide synthase inhibitors” (SmithKline Beecham Corporation, priority 1998, dated 2002)

Assays:
human iNOS = molecular target: T1, human iNOS (Homo sapiens, UniProt P35228); test: Inhibition of isolated human iNOS; assay type: biochemical; conditions: purified human iNOS, haemoglobin absorption assay
T1 construct: made in house
From the text: 1. Inhibition of Isolated Human iNOS
The inhibition of purified human iNOS may be determined using a preparation of human iNOS as described in the chapter “Expression if Human Nitric Oxide Synthase Isozymes” by Charles et al in Methods in Enzymology, 1996 Volume 268, 449-460. Activity may be monitored using quantitative absorption changes of haemoglobin as described by R. G. Knowles and J. Dawson in “A Microtitreplate Assay of Human NOS Isoforms” in Methods in Molecular Biology, 1998, Volume 100, 237-242, Nitric Oxide Protocols, Ed M. A. Titheradge, Humana Press, Totowa N.J.

nNOS = molecular target: T2, nNOS (Rattus norvegicus, UniProt P29476); test: Inhibition of nNOS in rat cortical slices (14C-arginine to 14C-citrulline); assay type: cell-based
T2 construct: rat cerebral cortex slices; from tissue; host or cells: rat cerebral cortex slices (McIlwain-chopped)
Description: 3. Inhibition of nNOS in Rat Cortical Slices
The effects of compounds on nNOS in rat brain slices was determined as described in Furfine et al (1994) J. Biol. Chem. 269, 26677-26683 and Lizasoain et al (1995) J. Neurochem. 64, 636-642. KCl (54 mM)—stimulated NO synthesis was measured by the conversion of 14C-arginine to 14C-citrulline over a 2 h period at 37° C. in Mcllwain—chopped (0.2 mm ×0.2 mm) rat cerebral cortex slices, following a 1 h preincubation period in the absence of compound or high KCl.

eNOS = molecular target: T3, eNOS (Rattus norvegicus, UniProt Q62600); test: Inhibition of eNOS in situ in rat aortic rings (basal tone, intact endothelium, ring tension); assay type: cell-based; conditions: rat aortic rings with intact endothelium, threshold phenylephrine
T3 construct: from tissue; host or cells: rat thoracic aorta rings with intact endothelium
Description: (§1) 2. Inhibition of eNOS and INOS in Rat Aortic Rings
(§2) The inhibition of eNOS and iNOS in situ in rat aortic rings was assessed by measuring the increases in ring tension caused by NO synthase inhibition. For studies of basal tone (reflecting eNOS), rings of thoracic aorta with intact endothelium were prepared as described previously (Rees et at. (1989) Br. J. Pharmol. 96, 418-424) and cumulative concentration curves obtained for the inhibitors in the presence of a threshold concentration of phenylephrine (ED10≈10 nM). For studies of induced smooth muscle tone (reflecting iNOS), endothelium-denuded rings were exposed to LPS (0.1 μg/ml from S. typhosa) in the presence of phenylephrine at approximately ED90 for 6 h as described previously (Rees et al. (1990) Biochem. Biophys. Res. Commun. 173, 541-547). During this time a progressive loss of tone occurred because of iNOS induction. Cumulative concentration curves were then obtained for the inhibitors.

[1] = Oral bioavailability and pharmacokinetics in rats; assay type: in vivo, rat
Description: 4. Method for Determining the Oral Bioavailability of iNOS Inhibitor Compounds
Rats (3 animals per time point) were dosed intravenously (10 mg/kg) and orally (50 mg/kg) with test compound in an aqueous solution. Blood samples were taken at time intervals after administration and plasma prepared by centrifugation. Samples were stored at −20° C. until analysis.
Plasma (50 μl) was de-proteinated and compound derivatised with a quaternary ammonium reagent. Samples were then injected onto an HPLC system and compound concentration determined using mass spectrometric detection.
The plasma concentrations obtained by the above method were entered into a pharmacokinetic software package (PKCAL v 1.2s) and the data were fitted using a non-compartmental method. The oral bioavailability of the compounds was determined by comparing the Area Under the Curve (AUC) values calculated by the software for the oral profile with the AUC for the intravenous profile. The half-lives were obtained by fitting the terminal phase time points of the intravenous profile.

iNOS = molecular target: T4, iNOS (Rattus norvegicus, UniProt Q06518); test: Inhibition of iNOS in situ in rat aortic rings (LPS-induced, endothelium-denuded, ring tension); assay type: cell-based
T4 construct: endothelium-denuded rings were exposed to LPS; from tissue; host or cells: rat thoracic aorta rings, endothelium-denuded, LPS-treated
Description: as §1, §2

T1 sequence (P35228 whole entry): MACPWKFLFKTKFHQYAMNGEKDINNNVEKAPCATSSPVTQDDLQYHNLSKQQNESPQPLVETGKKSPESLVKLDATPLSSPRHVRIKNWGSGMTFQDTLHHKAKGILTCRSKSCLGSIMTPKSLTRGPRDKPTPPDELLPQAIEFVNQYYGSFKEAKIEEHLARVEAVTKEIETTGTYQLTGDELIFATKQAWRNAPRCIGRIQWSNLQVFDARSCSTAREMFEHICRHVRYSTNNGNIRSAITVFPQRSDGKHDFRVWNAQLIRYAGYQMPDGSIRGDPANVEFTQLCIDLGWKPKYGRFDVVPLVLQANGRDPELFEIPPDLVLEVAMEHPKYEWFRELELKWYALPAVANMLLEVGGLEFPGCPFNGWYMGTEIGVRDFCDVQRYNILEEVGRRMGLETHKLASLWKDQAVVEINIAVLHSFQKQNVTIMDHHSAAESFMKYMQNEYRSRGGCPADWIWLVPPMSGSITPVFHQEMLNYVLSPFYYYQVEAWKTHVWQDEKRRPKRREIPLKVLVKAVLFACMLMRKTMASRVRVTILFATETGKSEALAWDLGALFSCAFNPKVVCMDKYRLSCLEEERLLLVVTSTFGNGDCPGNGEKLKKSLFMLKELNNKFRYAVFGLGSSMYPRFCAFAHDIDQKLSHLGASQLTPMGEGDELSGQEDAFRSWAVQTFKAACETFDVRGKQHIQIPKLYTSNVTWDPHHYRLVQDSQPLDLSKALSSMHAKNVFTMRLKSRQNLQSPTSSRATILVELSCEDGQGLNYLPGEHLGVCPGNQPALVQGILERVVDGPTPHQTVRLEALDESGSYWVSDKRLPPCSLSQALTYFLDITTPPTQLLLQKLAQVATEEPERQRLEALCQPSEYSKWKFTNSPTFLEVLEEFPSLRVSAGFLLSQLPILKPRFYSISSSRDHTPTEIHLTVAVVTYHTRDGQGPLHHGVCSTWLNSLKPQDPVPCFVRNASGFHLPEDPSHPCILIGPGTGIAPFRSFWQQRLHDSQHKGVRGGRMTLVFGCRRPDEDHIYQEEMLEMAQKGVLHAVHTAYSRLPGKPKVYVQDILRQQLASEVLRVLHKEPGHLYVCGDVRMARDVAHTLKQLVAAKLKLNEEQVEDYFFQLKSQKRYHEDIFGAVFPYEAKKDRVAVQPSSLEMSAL
T4 sequence (Q06518 whole entry): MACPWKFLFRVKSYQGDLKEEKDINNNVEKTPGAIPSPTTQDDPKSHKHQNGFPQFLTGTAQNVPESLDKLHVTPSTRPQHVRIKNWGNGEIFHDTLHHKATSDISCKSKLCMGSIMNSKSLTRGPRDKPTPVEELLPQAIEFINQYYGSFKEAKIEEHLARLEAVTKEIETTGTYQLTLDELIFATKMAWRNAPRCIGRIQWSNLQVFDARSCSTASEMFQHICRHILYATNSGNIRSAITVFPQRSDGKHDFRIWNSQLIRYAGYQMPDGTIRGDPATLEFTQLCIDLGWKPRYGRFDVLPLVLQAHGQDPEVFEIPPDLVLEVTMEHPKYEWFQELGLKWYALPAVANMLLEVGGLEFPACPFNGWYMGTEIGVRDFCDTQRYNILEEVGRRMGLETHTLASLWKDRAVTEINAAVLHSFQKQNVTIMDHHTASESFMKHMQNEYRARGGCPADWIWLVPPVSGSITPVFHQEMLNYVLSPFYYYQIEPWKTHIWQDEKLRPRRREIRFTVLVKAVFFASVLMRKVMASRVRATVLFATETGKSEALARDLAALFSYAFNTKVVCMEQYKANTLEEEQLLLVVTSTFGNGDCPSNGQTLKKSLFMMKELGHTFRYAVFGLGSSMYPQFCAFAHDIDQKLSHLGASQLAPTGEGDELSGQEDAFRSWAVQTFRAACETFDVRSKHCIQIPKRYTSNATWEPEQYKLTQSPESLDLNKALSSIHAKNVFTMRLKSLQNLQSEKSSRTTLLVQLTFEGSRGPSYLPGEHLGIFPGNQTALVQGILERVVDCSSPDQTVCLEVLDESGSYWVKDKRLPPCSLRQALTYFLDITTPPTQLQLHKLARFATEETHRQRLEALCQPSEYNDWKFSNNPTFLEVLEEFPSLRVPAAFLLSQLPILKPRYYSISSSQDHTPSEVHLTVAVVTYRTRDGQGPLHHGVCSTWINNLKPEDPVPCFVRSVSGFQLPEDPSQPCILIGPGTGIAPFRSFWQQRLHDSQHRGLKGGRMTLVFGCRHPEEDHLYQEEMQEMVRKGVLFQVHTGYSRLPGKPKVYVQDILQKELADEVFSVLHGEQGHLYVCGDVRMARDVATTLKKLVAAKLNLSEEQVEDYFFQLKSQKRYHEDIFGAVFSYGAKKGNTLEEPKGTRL
T2 sequence (P29476 whole entry): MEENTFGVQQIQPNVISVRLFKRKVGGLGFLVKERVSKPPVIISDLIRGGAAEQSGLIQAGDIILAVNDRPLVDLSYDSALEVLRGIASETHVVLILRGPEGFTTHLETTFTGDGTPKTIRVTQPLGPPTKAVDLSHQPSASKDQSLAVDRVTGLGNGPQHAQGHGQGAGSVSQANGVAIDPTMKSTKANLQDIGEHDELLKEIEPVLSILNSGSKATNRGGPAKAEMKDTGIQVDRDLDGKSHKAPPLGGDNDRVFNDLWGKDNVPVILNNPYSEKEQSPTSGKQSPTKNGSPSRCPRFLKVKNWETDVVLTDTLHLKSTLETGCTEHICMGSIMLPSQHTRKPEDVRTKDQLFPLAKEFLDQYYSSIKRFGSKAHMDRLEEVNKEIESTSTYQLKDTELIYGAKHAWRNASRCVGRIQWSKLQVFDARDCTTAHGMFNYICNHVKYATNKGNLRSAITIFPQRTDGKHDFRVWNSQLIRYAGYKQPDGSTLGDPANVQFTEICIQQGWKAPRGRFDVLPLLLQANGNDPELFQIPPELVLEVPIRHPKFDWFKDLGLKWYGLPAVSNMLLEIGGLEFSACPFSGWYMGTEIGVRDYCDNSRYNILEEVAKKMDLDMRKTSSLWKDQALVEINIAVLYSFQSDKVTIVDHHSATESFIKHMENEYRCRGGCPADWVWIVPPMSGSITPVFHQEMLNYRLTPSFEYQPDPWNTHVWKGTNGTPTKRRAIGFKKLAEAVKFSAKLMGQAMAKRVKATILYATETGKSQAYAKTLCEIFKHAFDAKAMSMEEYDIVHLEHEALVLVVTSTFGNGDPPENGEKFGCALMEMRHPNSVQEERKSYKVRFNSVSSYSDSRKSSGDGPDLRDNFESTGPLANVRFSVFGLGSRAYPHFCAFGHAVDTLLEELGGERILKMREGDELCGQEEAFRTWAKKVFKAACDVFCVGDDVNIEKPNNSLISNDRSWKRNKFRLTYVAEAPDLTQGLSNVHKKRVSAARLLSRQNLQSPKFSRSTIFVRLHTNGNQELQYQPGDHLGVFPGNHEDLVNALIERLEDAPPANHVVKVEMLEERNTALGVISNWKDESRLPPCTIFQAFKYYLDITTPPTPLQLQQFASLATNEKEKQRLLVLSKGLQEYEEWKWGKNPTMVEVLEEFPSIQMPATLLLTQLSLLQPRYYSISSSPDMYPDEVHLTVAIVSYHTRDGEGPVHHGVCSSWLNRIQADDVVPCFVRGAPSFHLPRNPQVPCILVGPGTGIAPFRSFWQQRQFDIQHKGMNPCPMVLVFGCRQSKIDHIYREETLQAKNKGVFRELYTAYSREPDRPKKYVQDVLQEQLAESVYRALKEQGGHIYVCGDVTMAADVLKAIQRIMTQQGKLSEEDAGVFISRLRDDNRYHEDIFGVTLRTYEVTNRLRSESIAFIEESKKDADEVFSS
T3 sequence (Q62600 2-1202): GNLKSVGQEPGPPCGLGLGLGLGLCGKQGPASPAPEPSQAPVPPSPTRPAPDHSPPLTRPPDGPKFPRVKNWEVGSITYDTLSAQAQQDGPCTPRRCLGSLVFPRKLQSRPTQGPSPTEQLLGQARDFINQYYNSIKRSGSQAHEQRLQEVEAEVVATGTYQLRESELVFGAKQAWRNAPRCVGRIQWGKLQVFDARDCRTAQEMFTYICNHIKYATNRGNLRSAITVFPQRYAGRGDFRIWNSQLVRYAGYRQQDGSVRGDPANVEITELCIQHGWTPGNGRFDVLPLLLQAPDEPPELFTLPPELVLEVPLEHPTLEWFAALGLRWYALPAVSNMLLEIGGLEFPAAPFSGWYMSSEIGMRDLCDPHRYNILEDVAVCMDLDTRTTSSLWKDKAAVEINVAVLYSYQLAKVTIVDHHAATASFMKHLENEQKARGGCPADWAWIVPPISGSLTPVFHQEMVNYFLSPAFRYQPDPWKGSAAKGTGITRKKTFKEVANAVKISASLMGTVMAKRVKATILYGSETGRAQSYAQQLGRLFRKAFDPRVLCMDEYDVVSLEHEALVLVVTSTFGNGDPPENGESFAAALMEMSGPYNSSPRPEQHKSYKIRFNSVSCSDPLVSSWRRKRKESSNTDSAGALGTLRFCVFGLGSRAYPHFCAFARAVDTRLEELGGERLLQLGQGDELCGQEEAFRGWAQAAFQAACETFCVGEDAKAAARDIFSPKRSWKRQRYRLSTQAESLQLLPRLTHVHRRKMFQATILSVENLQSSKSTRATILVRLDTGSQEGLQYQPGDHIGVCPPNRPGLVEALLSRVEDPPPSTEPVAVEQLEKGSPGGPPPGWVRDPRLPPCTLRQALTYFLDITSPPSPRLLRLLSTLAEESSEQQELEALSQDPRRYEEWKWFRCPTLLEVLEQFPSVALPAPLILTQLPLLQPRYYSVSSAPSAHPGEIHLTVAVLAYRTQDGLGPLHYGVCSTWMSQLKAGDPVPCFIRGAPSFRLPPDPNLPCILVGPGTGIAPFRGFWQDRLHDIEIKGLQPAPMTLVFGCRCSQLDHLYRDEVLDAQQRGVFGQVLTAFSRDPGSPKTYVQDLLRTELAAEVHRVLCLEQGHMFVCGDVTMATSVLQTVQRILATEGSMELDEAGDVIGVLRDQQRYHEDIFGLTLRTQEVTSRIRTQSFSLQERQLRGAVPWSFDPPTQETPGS

S-[(R)-2-(1-Iminoethylamino)propyl]-D-cysteine Dihydrochloride [Example 4]
IC50 (human iNOS): 48 µM

S-[(R)-2-(1-Iminoethylamino)propyl]-L-cysteine Dihydrochloride [Example 1]
IC50 (human iNOS): 2 µM | IC50 (nNOS; rat cerebral cortex slices, KCl (54 mM)-stimulated NO synthesis, 2 h, 37° C.): > 80 µM | selectivity for iNOS versus nNOS (nNOS; rat tissue assays): > 300 fold | IC50 (eNOS): > 20 µM | half-life ([1]; intravenous 10 mg/kg, terminal phase): 2 to 4 h | oral bioavailability ([1]; oral 50 mg/kg vs intravenous 10 mg/kg, AUC comparison): > 90% | selectivity iNOS vs eNOS (iNOS): >75 | IC50 (iNOS; endothelium-denuded, LPS 0.1 μg/ml 6 h, phenylephrine approx. ED90): 0.26 µM

S-[(R/S)-2-(1-Iminoethylamino, 2-Cyclopropyl)ethyl]-L-cysteine Dihydrochloride [Example 7]
IC50 (human iNOS): 6.2 µM

S-[(S)-2-(1-Iminoethylamino)propyl]-D-cysteine Dihydrochloride [Example 3]
IC50 (human iNOS): 6.6 µM

S-[(S)-2-(1-Iminoethylamino)propyl]-L-cysteine Dihydrochloride [Example 2]
IC50 (human iNOS): 39 µM
